Here are results for five compounds from article PMC9213561, “3-nitroimidazo[1,2-b]pyridazine as a novel scaffold for antiparasitics with sub-nanomolar anti-Giardia lamblia activity” (International Journal for Parasitology: Drugs and Drug …, 2022).

A word on the IC50: it is the concentration needed to halve the response being measured. The term Ki denotes the dissociation constant of the complex between target and ligand, obtained from inhibition or displacement.

Read-outs that look alike come from different tables or passages of the source.

In one assay the test system is G. lamblia. Also on record: method as in Blaazer et al., 2018; Kunz et al., 2017b. To be noted: Fig. 2; ref Blaazer et al., 2018; Kunz et al., 2017b; cited from earlier work.
For another assay, the system named is GlPDE. Details: method as in Blaazer et al., 2018; Kunz et al., 2017b. To be noted: Fig. 2; ref Blaazer et al., 2018; Kunz et al., 2017b; cited from earlier work.
A further assay relates to T.b. brucei. Also on record: method as in Blaazer et al., 2018; Kunz et al., 2017b. To be noted: Fig. 2; ref Blaazer et al., 2018; Kunz et al., 2017b; cited from earlier work.
In a further assay the test system is TbrPDEB1. Details: method as in Blaazer et al., 2018; Kunz et al., 2017b. The following applies: Fig. 2; ref Blaazer et al., 2018; Kunz et al., 2017b; cited from earlier work.
In another assay the target is hPDE4B (Homo sapiens, UniProt Q07343). The assay is described as follows: Human PDE4 activity inhibition. Type of assay: biochemical. The following applies: for Ki: mean ± standard deviation, n ≥ 2. As to the method: (§1) G. lamblia trophozoites (WBC6) were seeded into 96-well-plates in 0.2 mL Keister-medium containing 10^3 trophozoites per well in the presence of the compounds dissolved in dimethyl sulfoxide (DMSO, final concentration 0.25%) or with DMSO as a solvent control and incubated for 72 h at 37 °C in an anaerobic chamber (80% N2, 10% H2, 10% CO2). Then, plates were centrifuged (2 min, 1000 rpm), medium was removed, and cells were washed once with PBS containing 1 g/L glucose. Then, PBS-glucose containing 10 mg/L resazurin was added, and plates were incubated for up to 5 h at 37 °C. Fluorescence reading (ex 530 nm/em 590 nm) was performed at various time points, and the linear increase of fluorescence was used as a marker for cell viability. IC50 values were calculated using the logit-log algorithm and are given as mean values with 95%-confidence intervals ([Müller et al., 2020]; [Müller and Hemphill, 2013]; [Müller and Müller, 2019]). The assays for growth inhibition of T. b. brucei, T. cruzi, L. infantum, P. falciparum and MRC-5 (human lung fibroblasts MRC-5SV40) were previously described ([Blaazer et al., 2014]). PDE activity was determined exactly as described ([de Heuvel et al., 2021]; [Kunz et al., 2005], [2017b]). All assays were carried out in triplicates and no more than 20% substrate was hydrolyzed in all reactions. Compounds were dissolved in DMSO and the final DMSO concentration was 1% in all reaction mixes. Control reactions with DMSO alone were always included. Data were analyzed using the GraphPad Prism software package (v7.0, GraphPad, San Diego).

Another assay relates to Plasmodium falciparum. The assay is described as follows: Growth inhibition of P. falciparum. Type of assay: cell-based. To be noted: mean ± standard deviation, n ≥ 2, read-out: IC50 (µM) P.f. As to the method:
as §1, with “[…]-medium” for “Keister-medium”, “([[…],” for “([Müller et al., 2020]; [Müller and Hemphill, 2013]; [Müller and Müller,”

In assay [1] the test system is MRC-5 (human lung fibroblasts MRC-5SV40). The assay is described as follows: Cytotoxicity on MRC-5 cells. Type of assay: cell-based. To be noted: MRC5, mean ± standard deviation, n ≥ 2, read-out: IC50 (nM) MRC-5. Here is the method:
as §1, with “[…]-medium” for “Keister-medium”, “([[…],” for “([Müller et al., 2020]; [Müller and Hemphill, 2013]; [Müller and Müller,”

Another assay concerns Trypanosoma cruzi. The assay is described as follows: Growth inhibition of T. cruzi. To be noted: mean ± standard deviation, n ≥ 2. It is filed as cell-based. As to the method: as §1
The target of another assay is GlPDE (aa588-1371) (Giardia lamblia, UniProt A0A644EZ75). The assay is described as follows: GlPDE activity inhibition. It is filed as biochemical. To be noted: for Ki: mean ± standard deviation, n ≥ 2. As to the method: as §1
Figure S69. Representative dose-response curve of 11 against GlPDE (aa588-1371) enzyme (substrate concentration: 1 μM).

Assay [2] has as its system Trypanosoma brucei brucei. The assay is described as follows: Growth inhibition of T. b. brucei. To be noted: mean ± standard deviation, n ≥ 2. It is filed as cell-based. Here is the method: as §1
The test system of the next assay is Leishmania infantum. The assay is described as follows: Growth inhibition of L. infantum. The following applies: mean ± standard deviation, n ≥ 2. It is filed as cell-based. Here is the method:
as §1

Assay [3] deals with G. lamblia trophozoites (WBC6). The assay is described as follows: Growth inhibition of G. lamblia trophozoites (WBC6), resazurin viability read-out. To be noted: for IC50: Giardia duodenalis; for fold higher anti-Giardia activity than metronidazole: versus metronidazole IC50 = 0.8 μM. Type of assay: cell-based, Giardia lamblia. Here is the method:
as §1
Figure S67. Representative drug susceptibility curves of G. lamblia WBC6. Trophozoites were grown anaerobically in the presence of various concentrations of 17 (red), 29 (blue) and the reference compound metronidazole (MET, black). After 72 h, growth of cells was monitored by a cell viability assay based on the reduction of resazurin to a pink fluorescent product. Measured fluorescence units were normalized to the DMSO control. Data points and error bars represent mean and standard error of 4 replicates.
On the technique in general: The colour change of resazurin is a common sign of viable cells or microbes.

The mark [4] stands for this setting: WBC6 trophozoites, 72 h, anaerobic, mean ± standard error (95% CI, logit-log), quadruplicates, read-out: IC50 (nM) G.l.

Sequence of hPDE4B (Q07343 330-659 limits assumed): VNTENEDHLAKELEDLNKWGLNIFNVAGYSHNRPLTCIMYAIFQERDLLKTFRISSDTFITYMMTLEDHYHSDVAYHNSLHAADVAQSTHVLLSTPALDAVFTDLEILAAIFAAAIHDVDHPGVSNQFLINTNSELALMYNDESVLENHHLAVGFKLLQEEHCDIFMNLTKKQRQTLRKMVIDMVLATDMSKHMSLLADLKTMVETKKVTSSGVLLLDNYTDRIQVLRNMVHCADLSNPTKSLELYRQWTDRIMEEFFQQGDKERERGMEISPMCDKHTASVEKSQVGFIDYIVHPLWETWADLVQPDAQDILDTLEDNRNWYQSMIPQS

For the compound `COc1ccc(C2=NN(C3CCN(S(=O)(=O)c4cccc5cccnc45)CC3)C(=O)[C@@H]3CC=CC[C@H]23)cc1OC` [Compound 10], the half-maximal inhibitory concentration (IC50) is 1.5 µM with G. lamblia, 3 µM with GlPDE, 0.42 µM with T.b. brucei and 0.03 µM in the assay with TbrPDEB1.
With `COc1ccc(C2=NN(C3CCN(c4ccc5ncc([N+](=O)[O-])n5n4)CC3)C(=O)CC2)cc1OC` [Compound 18, 6-(3,4-Dimethoxyphenyl)-2-(1-(3-nitroimidazo[1,2-b]pyridazin-6-yl)piperidin-4-yl)-4,5-dihydropyridazin-3(2H)-one], the “fold decrease of hPDE4 affinity” value at hPDE4B (compared with 11) was determined as 20 fold. Further, the inhibition constant Ki at hPDE4B is 0.0032 ± 0.0004 µM; at GlPDE (aa588-1371), over 10 µM. The IC50 in the assay with Plasmodium falciparum was 33.8 ± 37 µM; in assay [1] it was over 64000 nM; in the assay with Trypanosoma cruzi it was 50.9 ± 4.7 µM; in assay [2], over 64 µM; in the assay on Leishmania infantum, 26.4 ± 8.6 µM; in assay [3] (setting [4]), 0.2 ± 0.1 nM. Also, the concentration for half-maximal inhibition (IC50) in assay [3] (text value in pM, read-out: anti-Giardia IC50 on growth inhibition) is about 0.2 nM. Further, the “GlPDE Ki over IC50 for Giardia growth inhibition” value at GlPDE (aa588-1371) is recorded as “over 50,000 fold”. Also, the “fold increase in anti-Giardia potency” value in assay [3] (compared with 11 (cyclohexene ring removed)) was 2.5 fold.
As for `COc1ccc(C2=NN(C3CCCCCC3)C(=O)[C@H]3CC=CC[C@@H]23)cc1OCCCCOc1ccc(-c2nn[nH]n2)cc1` [Compound 9], the half-maximal inhibitory concentration (IC50) in the assay on G. lamblia was 6.9 µM; in the assay on GlPDE it was 0.8 µM; in the assay with T.b. brucei, 0.08 µM; in the assay on TbrPDEB1 it was […].
With `COc1ccc(C2=NN(C3CCN(c4ccc5ncc([N+](=O)[O-])n5n4)CC3)C(=O)CC2)cc1Cl` [Compound 19, 6-(3-Chloro-4-methoxyphenyl)-2-(1-(3-nitroimidazo[1,2-b]pyridazin-6-yl)piperidin-4-yl)-4,5-dihydropyridazin-3(2H)-one], at hPDE4B (compared to 18), the “fold decrease of affinity for hPDE4B” value amounted to 60 fold. Moreover, the Ki at hPDE4B was 0.2 ± 0.05 µM; on GlPDE (aa588-1371), over 1000 µM. In addition, the IC50 was 7.2 ± 0.4 µM in the assay on Plasmodium falciparum; over 64000 nM in assay [1]; 5.4 ± 4.1 µM in the assay on Trypanosoma cruzi; 22.2 ± 15.9 µM in assay [2]; 28.9 ± 31 µM with Leishmania infantum; 19 ± 3.2 nM in assay [3] (setting [4]). Besides, in assay [3] (compared with 18), the “fold decrease of anti-Giardia activity” value stood at 100 fold. Moreover, the “fold higher anti-Giardia activity than metronidazole” value in [3] came out at 40 fold.
With `COc1ccc(C2=NN(C3CCN(c4ccc5ncc([N+](=O)[O-])n5n4)CC3)C(=O)[C@@H]3CC=CC[C@H]23)cc1OC` [Compound 11, (4aS,8aR)-4-(3,4-Dimethoxyphenyl)-2-(1-(3-nitroimidazo[1,2-b]pyridazin-6-yl)piperidin-4-yl)-4a,5,8,8a-tetrahydrophthalazin-1(2H)-one], on hPDE4B (Ki hPDE4 versus Ki GlPDE), the “fold more active against human PDE4 than against GlPDE” value was 3,000 fold. In addition, the inhibition constant (Ki) at hPDE4B is 0.00016 ± 2e-05 µM; at GlPDE (aa588-1371), 0.5 ± 0.3 µM. Also, the IC50 in the assay on Plasmodium falciparum was 6.3 ± 0.4 µM; in assay [1], over 64000 nM; in the assay on Trypanosoma cruzi it was 5.9 ± 4.5 µM; in assay [2], 1 ± 0.7 µM; with Leishmania infantum, 27.4 ± 25.3 µM; in assay [3] (setting [4]) it was 0.5 ± 0.2 nM. The “fold higher anti-Giardia activity than metronidazole” value in assay [3] is > 1,000 fold.
